± gives the standard deviation of the averaged measurements.
Key:
Experiment in all cases: level (log10 ratio to DMSO vehicle control); higher = higher biomarker level / cell amount than vehicle control
[1] = compound: O=C(O)C(F)(F)OC(F)(F)C(F)(F)OC(F)(F)F [Perfluoro-3,6-dioxaheptanoic acid]; details: in DMSO
Experimental: (§1)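 BioMAP Diversity Plus panel of 12 human primary cell co-culture systems (3C, 4H, LPS, SAg, BT, BF4T, BE3C, CASM3C, HDF3CGF, KF3CT, MyoF, Mphg). Compounds were added 1 h before stimulation and left for 24 h (MyoF 48 h; BT 72 h for soluble read-outs or 6 d for IgG). Biomarkers were read by ELISA, cytotoxicity by SRB, PBMC viability and proliferation by Alamar Blue. Each well value was divided by the mean of 8 DMSO control wells on the same plate and log10 transformed; duplicate blinded samples were tested at 4 concentrations.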

[2] = compound: C=CC(=O)OCC(F)(F)C(F)(F)C(F)(F)C(F)(F)C(F)(F)C(F)(F)C(F)(F)F [1H,1H-Perfluorooctyl acrylate]; details: in DMSO
Experimental: as §1

[3] = compound: FC(F)(F)C(F)(F)C(F)(F)C(F)(F)C(F)(F)C(F)(F)C(F)(F)C(F)(F)CCS [2-(Perfluorooctyl)ethanthiol]; details: in DMSO
Experimental: as §1

[4] = compound: OCCC(F)(F)C(F)(F)C(F)(F)C(F)(F)C(F)(F)C(F)(F)F [6:2 Fluorotelomer alcohol]; details: in DMSO
Experimental: as §1

[5] = compound: OCC(F)(F)OC(F)(F)C(F)(F)OC(F)(F)CO [1H,1H,8H,8H-Perfluoro-3,6-dioxaoctane-1,8-diol]; details: in DMSO
Experimental: as §1

[6] = compound: OCCCC(F)(F)C(F)(F)C(F)(F)C(F)(F)C(F)(F)C(F)(F)C(F)(F)F [7:3 Fluorotelomer alcohol]; details: 6700 nM; in DMSO
Experimental: as §1

[7] = compound: O=C(O)C(F)(F)C(F)(F)C(F)(F)C(F)(F)C(F)(F)C(F)(F)C(F)(F)C(F)F [9-H-Perfluorononanoic acid]; details: in DMSO
Experimental: as §1

Perfluoropentanoic acid = compound: O=C(O)C(F)(F)C(F)(F)C(F)(F)C(F)(F)F [Perfluoropentanoic acid]; details: in DMSO
Experimental: as §1

| Test System | level (log10) ([1]; 6700 nM) | level (log10) ([1]; 20000 nM) | level (log10) ([1]; 60000 nM) | level (log10) ([2]; 6700 nM) | level (log10) ([2]; 20000 nM) | level (log10) ([2]; 60000 nM) | level (log10) ([3]; 6700 nM) | level (log10) ([3]; 20000 nM) | level (log10) ([4]; 6700 nM) | level (log10) ([4]; 20000 nM) | level (log10) ([5]; 6700 nM) | level (log10) ([5]; 20000 nM) | level (log10) ([5]; 60000 nM) | level (log10) [6] | level (log10) ([7]; 6700 nM) | level (log10) ([7]; 20000 nM) | level (log10) ([7]; 60000 nM) | level (log10) (Perfluoropentanoic acid; 6700 nM) | level (log10) (Perfluoropentanoic acid; 20000 nM) | level (log10) (Perfluoropentanoic acid; 60000 nM) |
| --- | --- | --- | --- | --- | --- | --- | --- | --- | --- | --- | --- | --- | --- | --- | --- | --- | --- | --- | --- | --- |
| KF3CT:MMP-9 | -0.0195 ± 0.033 | -0.0205 ± 0.05 | -0.028 ± 0.034 | -0.0245 ± 0.00071 | -0.0225 ± 0.019 | -0.014 ± 0.014 | -0.029 ± 0.035 | -0.0275 ± 0.037 | -0.007 ± 0.035 | -0.0045 ± 0.015 | -0.0005 ± 0.00071 | 0.0085 ± 0.011 | 0.0265 ± 0.0078 | -0.019 ± 0.018 | -0.05 ± 0.013 | 0.004 ± 0.0014 | 0.0475 ± 0.011 | -0.0225 ± 0.025 | -0.0205 ± 0.018 | 0.012 ± 0.038 |
| lMphg:CD62E/E-Selectin | 0.0105 ± 0.0021 | 0.003 ± 0.017 | 0.061 | -0.0075 ± 0.023 | 0.004 ± 0.017 | -0.004 ± 0.021 | -0.013 ± 0.013 | -0.0295 ± 0.011 | -0.0545 ± 0.011 | 0.0005 ± 0.043 | -0.0235 ± 0.019 | 0.004 ± 0.033 | -0.003 ± 0.03 | -0.005 ± 0.048 | -0.005 ± 0.037 | 0.0085 ± 0.035 | 0.0585 ± 0.021 | 0.012 ± 0.0057 | -0.008 ± 0.014 | 0.003 ± 0.042 |
| MyoF:alpha-SM Actin | -0.013 ± 0.0071 | -0.027 ± 0.034 | -0.0095 ± 0.018 | 0.016 ± 0.0085 | -0.0215 ± 0.032 | -0.0185 ± 0.039 | -0.0145 ± 0.036 | -0.103 ± 0.037 | -0.001 ± 0.018 | 0.0095 ± 0.026 | 0.003 ± 0.0057 | 0.013 ± 0.017 | 0.004 ± 0.018 | 0.0125 ± 0.0092 | -0.0215 ± 0.019 | -0.0245 ± 0.013 | -0.049 ± 0.014 | 0.0265 ± 0.07 | 0.0355 ± 0.052 | 0.0485 ± 0.044 |
| KF3CT:CXCL10/IP-10 | -0.0085 ± 0.00071 | -0.0055 ± 0.005 | 0.003 ± 0.013 | 0.0055 ± 0.0035 | 0 ± 0.0071 | -0.003 ± 0.014 | -0.025 ± 0.0042 | -0.01 ± 0.0057 | 0.0105 ± 0.0092 | 0.006 ± 0.014 | 0.0025 ± 0.005 | -0.001 ± 0.0028 | 0.004 ± 0.0028 | 0.01 ± 0.0042 | -0.0155 ± 0.0021 | -0.0265 ± 0.0064 | -0.039 ± 0.0099 | 0.002 ± 0.0042 | -0.0085 ± 0.0035 | 0.0025 ± 0.016 |
| HDF3CGF:CXCL10/IP-10 | 0.007 ± 0.011 | 0.0095 ± 0.0078 | -0.0075 ± 0.043 | -0.001 ± 0.0057 | -0.0455 ± 0.022 | -0.047 | -0.027 ± 0.025 | -0.0495 ± 0.005 | -0.009 ± 0.0099 | -0.0295 ± 0.0092 | 0.004 ± 0.0014 | -0.0085 ± 0.00071 | -0.011 ± 0.021 | -0.047 ± 0.03 | -0.0535 ± 0.016 | -0.023 ± 0.02 | -0.052 ± 0.017 | 0 ± 0.014 | -0.011 ± 0.0028 | 0.006 ± 0.0057 |
| HDF3CGF:PAI-I | -0.0525 ± 0.00071 | 0.0225 ± 0.037 | 0.06 | 0.032 ± 0.011 | 0.0515 ± 0.037 | 0.036 ± 0.069 | -0.077 ± 0.054 | -0.0885 ± 0.066 | -0.013 ± 0.014 | -0.004 ± 0.013 | -0.013 ± 0.023 | -0.017 ± 0.017 | -0.0205 ± 0.0092 | 0.0175 ± 0.029 | -0.0135 ± 0.0092 | 0.004 ± 0.0028 | 0.0175 ± 0.023 | -0.0055 ± 0.026 | -0.015 ± 0.013 | 0.007 ± 0.0014 |
| HDF3CGF:Collagen III | 0.0025 ± 0.0078 | 0.0225 ± 0.0035 | 0.0375 ± 0.022 | 0.067 ± 0.035 | 0.042 ± 0.04 | -0.0245 ± 0.084 | 0.0005 ± 0.033 | 0.002 ± 0.035 | 0.001 ± 0.038 | -0.014 ± 0.021 | -0.0035 ± 0.0078 | -0.0105 ± 0.0078 | 0.0165 ± 0.05 | 0.0135 ± 0.044 | -0.047 ± 0.013 | -0.115 ± 0.013 | -0.155 ± 0.057 | 0.005 ± 0.014 | 0.01 ± 0.017 | 0.033 ± 0.034 |
| MyoF:Collagen IV | -0.011 ± 0.0085 | 0.0045 ± 0.013 | 0.0015 ± 0.021 | 0.034 ± 0.054 | 0.03 ± 0.035 | 0.062 ± 0.071 | -0.009 ± 0.09 | 0.012 ± 0.05 | -0.0005 ± 0.013 | -0.002 ± 0.013 | -0.021 ± 0.013 | -0.0125 ± 0.015 | 0.0065 ± 0.032 | -0.02 ± 0.0085 | 0.039 ± 0.037 | 0.0365 ± 0.018 | 0.082 ± 0.03 | -0.007 ± 0.025 | -0.012 ± 0.016 | -0.0025 ± 0.023 |
| lMphg:M-CSF | -0.011 ± 0.016 | 0.003 ± 0.013 | -0.0345 ± 0.029 | 0.015 ± 0.0028 | -0.0245 ± 0.023 | -0.027 ± 0.034 | -0.0075 ± 0.023 | 0.012 ± 0.0028 | -0.0245 ± 0.0021 | -0.0245 ± 0.013 | -0.011 ± 0.0071 | -0.004 ± 0.0085 | -0.01 ± 0.0028 | -0.0205 ± 0.037 | -0.008 ± 0.028 | -0.0035 ± 0.018 | -0.0045 ± 0.013 | -0.028 ± 0.045 | 0.006 ± 0.035 | 0.0095 ± 0.049 |
| lMphg:SRB | -0.0015 ± 0.0092 | 0.0025 ± 0.011 | -0.002 ± 0.016 | -0.006 ± 0.0071 | -0.013 ± 0.016 | -0.0035 ± 0.012 | -0.008 ± 0.0014 | -0.011 ± 0.013 | -0.014 ± 0.017 | -0.0125 ± 0.0021 | -0.028 ± 0.021 | 0.015 | -0.0375 ± 0.0021 | -0.0085 ± 0.0064 | 0.0005 ± 0.00071 | 0.002 ± 0.0057 | -0.0115 ± 0.005 | -0.0125 ± 0.0035 | -0.0065 ± 0.0092 | 0.01 ± 0.018 |
| CASM3C:PAI-I | -0.004 ± 0.0099 | -0.013 ± 0.024 | -0.0105 ± 0.018 | 0 ± 0.0014 | -0.0075 ± 0.011 | 0.004 ± 0.0057 | -0.014 ± 0.017 | 0.0055 ± 0.026 | 0.0105 ± 0.00071 | 0.005 ± 0.0057 | 0.006 ± 0.0028 | 0 ± 0.0028 | 0.011 ± 0.017 | -0.005 ± 0.0014 | 0.0135 ± 0.021 | -0.004 ± 0.0042 | 0.0085 ± 0.022 | -0.0095 ± 0.011 | -0.007 ± 0.0042 | 0.0005 ± 0.011 |
| CASM3C:SRB | -0.0065 ± 0.00071 | -0.002 ± 0.0028 | -0.0005 ± 0.0035 | -0.007 ± 0.011 | 0.0005 ± 0.0078 | 0.0005 ± 0.00071 | 0.002 ± 0.0085 | 0.0095 ± 0.0064 | 0.0075 ± 0.005 | -0.003 ± 0.0028 | -0.008 ± 0.0014 | -0.003 ± 0.0042 | -0.009 ± 0.0057 | 0.006 ± 0.0028 | 0.0045 ± 0.005 | 0.0035 ± 0.0035 | -0.001 ± 0.0057 | 0.0095 ± 0.0021 | -0.008 ± 0.0014 | 0.004 ± 0.0099 |
| HDF3CGF:M-CSF | -0.015 ± 0.0099 | -0.013 ± 0.0042 | -0.0105 ± 0.05 | 0.0085 ± 0.015 | -0.006 ± 0.0057 | -0.053 ± 0.069 | -0.0185 ± 0.013 | -0.014 ± 0.0099 | -0.009 ± 0.0099 | -0.0075 ± 0.0021 | -0.0025 ± 0.0078 | -0.01 ± 0.0071 | 0.01 ± 0.0099 | 0.0035 ± 0.044 | -0.067 ± 0.0028 | -0.0835 ± 0.011 | -0.05 ± 0.027 | 0.0025 ± 0.019 | -0.018 ± 0.0099 | 0.004 ± 0.0028 |
| KF3CT:CD54/ICAM-1 | -0.0055 ± 0.0035 | -0.0115 ± 0.00071 | -0.02 ± 0.011 | -0.005 ± 0.016 | -0.0075 ± 0.005 | -0.0045 ± 0.0092 | -0.001 ± 0.034 | -0.002 ± 0.0085 | 0.011 ± 0.0057 | 0.0155 ± 0.0021 | -0.004 ± 0.0014 | 0.008 ± 0.03 | 0.0135 ± 0.037 | -0.022 ± 0.0071 | -0.0045 ± 0.016 | -0.024 ± 0.0014 | -0.0365 ± 0.0064 | 0.004 ± 0.0057 | 0.001 ± 0.013 | 0.016 ± 0.028 |
